Test results from ChEMBL document CHEMBL1165947, “Synthesis and antitumor activity of 2,5-bis(3'-indolyl)-furans and 3,5-bis(3'-indolyl)-isoxazoles, nortopsentin analogues” (Bioorg Med Chem, 2010).

System: P388
Test: Cytotoxicity against mouse P388 cells
Type: functional, cell-based

Compound	IC50 [µM]
Cn1c(-c2cn(C)c3ccccc23)cnc1-c1cn(C)c2cc(Br)ccc12 [N-METHYL NORTOPSENTIN B]	0.8
Brc1ccc2c(-c3c[nH]c(-c4c[nH]c5cc(Br)ccc45)n3)c[nH]c2c1 [NORTOPSENTIN A]	4.5
Brc1ccc2c(-c3nc(-c4c[nH]c5ccccc45)c[nH]3)c[nH]c2c1 [NORTOPSENTIN B]	4.5
Brc1ccc2c(-c3c[nH]c(-c4c[nH]c5ccccc45)n3)c[nH]c2c1 [NORTOPSENTIN C]	4.5
